One block for each molecule: values may come before it.
Assays:
Assay type in all cases: physicochemical, human
[1] = GC/MS of serum sample: number of times of freezing and thawing (Table I); parameters: key to Rate of increase or decrease / Rate of increase or decrease (first value, increase): detection intensity relative to 2 freeze-thaw cycles = 1; conditions: for Rate of increase or decrease: detection intensity relative to 1 at 2 times; for Number of times when compound is affected: detection intensity changed by 30% or more vs 2 times of freezing and thawing
Procedure: (§1) After standing, the blood sample was subjected to centrifugation under a condition of room temperature, 3500 rpm, and 5 minutes. […] After centrifugation, the blood-collecting vessel was left to stand at room temperature, and the serum was isolated during this time. Here, in order to investigate how the detection intensity of molecules contained in the sample was affected in cases where the time during which the blood-collecting vessel was left at room temperature was set to 1 hour and 6 hours as compared to that in a case where the time was set to 30 minutes, preparations were performed under the respective conditions of 30 minutes, 1 hour, and 6 hours. The obtained serum sample was frozen and stored. Here, in order to investigate how the detection intensity of molecules contained in the sample was affected in cases where freezing and thawing was performed 4 times, 6 times, and 10 times after freezing as compared to that in a case where freezing and thawing was performed 2 times after freezing, freezing and thawing was performed under the respective conditions of 2, 4, 6, and 10 times.
(§2) Frozen blood plasma samples and serum samples were subjected to GC/MS or LC/MS. In GC/MS, the blood plasma samples and serum samples were subjected to methoxymation and trimethylsilylation and then introduced to GC-MS.
(§3) GC/MS was conducted using GCMS·TQ8040 (Shimadzu Corporation) that was a GC·MS equipped with AOC·20i (Shimadzu Corporation) as an autosampler.
(§4) Column: BPX5 (inner diameter of 0.25 mm, length of 30 m, and film thickness of 0.25 μm) (SGE)
(§5) Column temperature: maintained at 60° C. for 2 minutes, then raised at 15° C./min, and maintained at 330° C. for 3 minutes.
(§6) Inlet temperature: 250° C.
(§7) Carrier gas control mode: constant linear velocity of 39.0 cm/sec
(§8) Sample introduction method: split (split ratio of 30:1) Injection volume: 1 μL
(§9) Ionization method: electron ionization
(§10) Ionization current: 60 μA
(§11) Interface temperature: 280° C.
(§12) Ion source temperature: 200° C.
(§13) Mode: multiple reaction monitoring (MRM)
The rate of increase or decrease in Table I is the value of detection intensity relative to 1 that is the detection intensity in a case where the number of times of freezing and thawing is set to 2 times.

[2] = GC/MS of serum sample: time from blood collection to centrifugation (Table G); conditions: blood collection to centrifugation; for Rate of increase or decrease: detection intensity relative to 1 at 15 minutes; for Increase or decrease: detection intensity
Procedure: as §1, §2, §3, §4, §5, §6, §7, §8, §9, §10, §11, §12, §13
The rate of increase or decrease in Table G is the value of detection intensity relative to 1 that is the detection intensity in a case where the time from blood collection to centrifugation is set to 15 minutes.

[3] = LC/MS of serum sample: number of times of freezing and thawing (Table M); parameters: key to Rate of increase or decrease: detection intensity relative to 1 at 2 freeze-thaw cycles; conditions: for Number of times when compound is affected / Increase or decrease: serum sample, LC/MS; for Number of times when compound is affected: detection intensity changed by 30% or more vs 2 times of freezing and thawing; for Increase or decrease: detection intensity vs 2 times of freezing and thawing
Procedure: as §1, §2
Analysis column: Discovery HS F5-3 (inner diameter of 2.1 mm, length of 150 mm, film thickness of 3 μm) (Sigma-Aldrich)
Column temperature: 40° C.
(A) 0.1% formic acid (dissolved in water)
(B) 0.1% formic acid (dissolved in acetonitrile)
Flow velocity: 0.25 mL/min
Ionization method: electrospray
Temperature: • Desolvation Line (DL) temperature: 250° C. • Heat block temperature: 400° C. • Interface temperature: 300° C.
Gas flow rate: • Nebulizer gas flow rate: 3.0 L/min • Drying gas flow rate: 10.0 L/min • Heating gas flow rate: 10.0 L/min
as §13
The rate of increase or decrease in Table M is the value of detection intensity relative to 1 that is the detection intensity in a case where the number of times of freezing and thawing is set to 2 times.

[4] = GC/MS of serum sample: time from centrifugation to isolation (Table H); parameters: key to Rate of increase or decrease / Rate of increase or decrease (first value, increase): detection intensity relative to 1 at 30 min centrifugation-to-isolation; conditions: for Rate of increase or decrease: detection intensity relative to 1 at 30 minutes; for Increase or decrease: detection intensity
Procedure: as §1, §2, §3, §4, §5, §6, §7, §8, §9, §10, §11, §12, §13
The rate of increase or decrease in Table H is the value of detection intensity relative to 1 that is the detection intensity in a case where the time from centrifugation to isolation is set to 30 minutes.

[5] = 10 times of freezing and thawing
[6] = serum sample, GC/MS, detection intensity vs 2 times of freezing and thawing
[7] = 6 times of freezing and thawing, detection intensity relative to 1 at 2 times
[8] = 10 times of freezing and thawing, detection intensity relative to 1 at 2 times

SMILES: OC[C@@H](O)[C@@H](O)CO [Meso-erythritol]
Rate of increase or decrease [1, 5]: 0.69 | Number of times when compound is affected ([1]; serum sample, GC/MS): 10 times | Increase or decrease [1, 6]: Decrease | Rate of increase or decrease ([2]; after 8 hours): 0.66 | Increase or decrease ([2]; after 8 hours vs 15 minutes): Decrease

SMILES: CSCC[C@H](N)C(=O)O [Methionine, methionine]
Rate of increase or decrease [3, 7]: 0.69 | Number of times when compound is affected [3]: 6 times | Increase or decrease [3]: Decrease

SMILES: CCCCCCCC/C=C\CCCCCCCC(N)=O [Oleamide]
Rate of increase or decrease ([1]; serum, GC/MS, freezing and thawing 4 times): 2.08 | Increase or decrease ([1]; detection intensity, serum, GC/MS, freezing and thawing 4 times vs 2 times): Increase

SMILES: CCCCCCCCC(=O)O [Pelargonic acid, pelargonic acid]
Rate of increase or decrease [1, 5]: 0.67 | Number of times when compound is affected ([1]; serum sample, GC/MS): 10 times | Increase or decrease [1, 6]: Decrease

SMILES: N[C@@H](Cc1ccccc1)C(=O)O [Phenylalanine, phenylalanine]
Rate of increase or decrease [3, 8]: 0.57 | Number of times when compound is affected [3]: 10 times | Increase or decrease [3]: Decrease

SMILES: O=C(O)C(=O)Cc1ccccc1 [Phenylpyruvic acid]
Rate of increase or decrease ([4]; after 6 hours): 1.45 | Increase or decrease ([4]; after 6 hours vs 30 minutes): Increase | Rate of increase or decrease [1, 5]: 2.06 | Number of times when compound is affected ([1]; serum sample, GC/MS): 10 times | Increase or decrease [1, 6]: Increase

SMILES: Cc1ncc(CO)c(CN)c1O [Pyridoxamine]
Rate of increase or decrease [1, 5]: 0.61 | Number of times when compound is affected ([1]; serum sample, GC/MS): 10 times | Increase or decrease [1, 6]: Decrease | Rate of increase or decrease ([2]; after 4 hours): 1.52 | Increase or decrease ([2]; after 4 hours vs 15 minutes): Increase

SMILES: OC[C@@H](O)[C@@H](O)[C@@H](O)CO [Ribitol]
Rate of increase or decrease ([4]; after 1 hour): 2.32 | Increase or decrease ([4]; after 1 hour vs 30 minutes): Increase | Rate of increase or decrease ([2]; after 8 hours): 1.44 | Increase or decrease ([2]; after 8 hours vs 15 minutes): Increase

SMILES: OC[C@@H](O)[C@@H](O)[C@H](O)[C@@H](O)CO [Sorbitol]
Rate of increase or decrease [1, 5]: 0.61 | Number of times when compound is affected ([1]; serum sample, GC/MS): 10 times | Increase or decrease [1, 6]: Decrease | Rate of increase or decrease ([2]; after 8 hours): 1.54 | Increase or decrease ([2]; after 8 hours vs 15 minutes): Increase

SMILES: N[C@@H](Cc1ccc(O)cc1)C(=O)O [Tyrosine, tyrosine]
Rate of increase or decrease [3, 7]: 0.60 | Number of times when compound is affected [3]: 6 times | Increase or decrease [3]: Decrease

SMILES: CC(C)[C@H](N)C(=O)O [Valine, valine]
Rate of increase or decrease [3, 8]: 0.56 | Number of times when compound is affected [3]: 10 times | Increase or decrease [3]: Decrease

SMILES: OC[C@@H](O)[C@H](O)[C@@H](O)CO [Xylitol]
Rate of increase or decrease ([2]; after 8 hours): 0.62 | Increase or decrease ([2]; after 8 hours vs 15 minutes): Decrease

The remaining lines, values ahead:

Rate of increase or decrease ([4]; after 6 hours): 1.58 | Increase or decrease ([4]; after 6 hours vs 30 minutes): Increase | Rate of increase or decrease [1, 5]: 2.17 | Number of times when compound is affected ([1]; serum sample, GC/MS): 10 times | Increase or decrease [1, 6]: Increase
SMILES: CC(=O)N[C@@H](CCC(N)=O)C(=O)O [N-acetylglutamine]

Rate of increase or decrease ([4]; after 1 hour): 0.66 | Increase or decrease ([4]; after 1 hour vs 30 minutes): Decrease | Rate of increase or decrease ([2]; after 4 hours): 0.65 | Increase or decrease ([2]; after 4 hours vs 15 minutes): Decrease
SMILES: CC(=O)C(=O)O [Pyruvic acid]

Rate of increase or decrease ([4]; after 6 hours): 1.34 | Increase or decrease ([4]; after 6 hours vs 30 minutes): Increase | Rate of increase or decrease [1, 5]: 1.69 | Number of times when compound is affected ([1]; serum sample, GC/MS): 10 times | Increase or decrease [1, 6]: Increase
SMILES: CC(=NO)C(=O)O [Pyruvic oxime]

Number of times when compound is affected ([1]; serum sample, GC/MS): 10 times | Increase or decrease [1, 6]: Increase
SMILES: CNCC(=O)O [Sarcosine, sarcosine]

Rate of increase or decrease ([3]; 6 times of freezing and thawing, relative to 1 at 2 times, different from individual to individual, first value (increase)): 1.31 | Rate of increase or decrease ([3]; 6 times of freezing and thawing, relative to 1 at 2 times, different from individual to individual, second value (decrease)): 0.69 | Number of times when compound is affected [3]: 6 times | Increase or decrease [3]: Different from individual
SMILES: C[C@@H](O)[C@H](N)C(=O)O [Threonine, threonine]
